Test results reported in patent US9695155B2, “Herbicidal substituted pyrimidinyloxy benzene compounds” (E. I. DU PONT DE NEMOURS AND COMPANY, priority 2013, dated 2017).

Tests used:
Assay in all cases: Test E preemergence
johnsongrass = type: in vivo, Sorghum halepense; details: for Johnsongrass plant response rating: scale 0 to 100 (0 no effect, 100 complete control)
Text: (§1) Seeds of plant species selected from corn (Zea mays), soybean (Glycine max), velvetleaf (Abutilon theophrasti), lambsquarters (Chenopodium album), wild poinsettia (Euphorbia heterophylla), palmer pigweed (Amaranthus palmeri), waterhemp (common waterhemp, Amaranthus rudis), surinam grass (Brachiaria decumbens), large (Lg) crabgrass (Digitaria sanguinalis), Brazilian crabgrass (Digitaria horizontalis), fall panicum (Panicum dichotomiflorum), giant foxtail (Setaria faberii), green foxtail (Setaria viridis), goosegrass (Eleusine indica), johnsongrass (Sorghum halepense), ragweed (common ragweed, Ambrosia elatior), barnyardgrass (Echinochloa crus-galli), sandbur (southern sandbur, Cenchrus echinatus), arrowleaf sida (Sida rhombifolia), Italian ryegrass (Lolium multiflorum), dayflower (Virginia (VA) dayflower, Commelina virginica), field bindweed (Convolvulus arvensis), morningglory (Ipomoea coccinea), nightshade (eastern black nightshade, Solanum ptycanthum), kochia (Kochia scoparia), yellow nutsedge (Cyperus esculentus), cocklebur (common cocklebur, Xanthium strumarium), smartweed (ladysthumb smartweed, and hairy beggarticks (Bidens pilosa), were planted into a silt loam soil and treated preemergence with test chemicals formulated in a non-phytotoxic solvent mixture which included a surfactant.
(§2) At the same time, plants from these crop and weed species and also horseweed (Canada horseweed, Conyza canadensis), waterhemp_RES1, (ALS & Triazine resistant common waterhemp, Amaranthus rudis), and waterhemp_RES2, (ALS & HPPD resistant common waterhemp, Amaranthus rudis) were planted in pots containing Redi-Earth® planting medium (Scotts Company, 14111 Scottslawn Road, Marysville, Ohio 43041) comprising spaghnum peat moss, vermiculite, wetting agent and starter nutrients were treated with postemergence applications of test chemicals formulated in the same manner. Plants ranged in height from 2 to 18 cm for postemergence treatments (1- to 4-leaf stage). Treated plants and controls were maintained in a greenhouse for 14 to 21 days, after which time all species were compared to controls and visually evaluated. Plant response ratings, summarized in Table E, are based on a scale of 0 to 100 where 0 is no effect and 100 is complete control. A dash (-) response means no test result.

kochia = type: in vivo, Kochia scoparia; details: for Kochia plant response rating: scale 0 to 100 (0 no effect, 100 complete control)
Text: as §1, §2

giant foxtail = type: in vivo, Setaria faberii; details: for Foxtail, Giant plant response rating: scale 0 to 100 (0 no effect, 100 complete control)
Text: as §1, §2

field bindweed = type: in vivo, Convolvulus arvensis; details: for Field Bindweed plant response rating: scale 0 to 100 (0 no effect, 100 complete control)
Text: as §1, §2

Italian ryegrass = type: in vivo, Lolium multiflorum; details: for Ryegrass, Italian plant response rating: scale 0 to 100 (0 no effect, 100 complete control)
Text: as §1, §2

nightshade = type: in vivo, Solanum ptycanthum; details: for Nightshade plant response rating: scale 0 to 100 (0 no effect, 100 complete control)
Text: as §1, §2

morningglory = type: in vivo, Ipomoea coccinea; details: for Morningglory plant response rating: scale 0 to 100 (0 no effect, 100 complete control)
Text: as §1, §2

waterhemp = type: in vivo, Amaranthus rudis; details: for Waterhemp plant response rating: scale 0 to 100 (0 no effect, 100 complete control)
Text: as §1, §2

goosegrass = type: in vivo, Eleusine indica; details: for Goosegrass plant response rating: scale 0 to 100 (0 no effect, 100 complete control)
Text: as §1, §2

corn = type: in vivo, Zea mays; details: for Corn plant response rating: scale 0 to 100 (0 no effect, 100 complete control)
Text: as §1, §2

hairy beggarticks = type: in vivo, Bidens pilosa; details: preemergence; for Beggarticks plant response rating: scale 0 to 100 (0 no effect, 100 complete control)
Text: as §1, §2

[1] = 125 g ai/ha, scale 0 to 100, 0 no effect, 100 complete control

SMILES: FC(F)(F)c1cnn(-c2c(Cl)cccc2Oc2ncc(Cl)cn2)c1 [Compound 167]
- Johnsongrass plant response rating (johnsongrass; 31 g ai/ha): 10
- Johnsongrass plant response rating (johnsongrass; 62 g ai/ha): 30
- Plant response rating, Johnsongrass (johnsongrass; [1]): 70
- Kochia plant response rating (kochia; 31 g ai/ha): 40
- Kochia plant response rating (kochia; 62 g ai/ha): 65
- Plant response rating, Kochia (kochia; [1]): 90
- Foxtail, Giant plant response rating (giant foxtail; 16 g ai/ha): 0
- Foxtail, Giant plant response rating (giant foxtail; 31 g ai/ha): 0
- Foxtail, Giant plant response rating (giant foxtail; 62 g ai/ha): 100
- Plant response rating, Foxtail, Giant (giant foxtail; [1]): 100
- Field Bindweed plant response rating (field bindweed; 16 g ai/ha): 0
- Field Bindweed plant response rating (field bindweed; 31 g ai/ha): 0
- Field Bindweed plant response rating (field bindweed; 62 g ai/ha): 0
- Plant response rating, Field Bindweed (field bindweed; [1]): 10
- Ryegrass, Italian plant response rating (Italian ryegrass; 31 g ai/ha): 0
- Ryegrass, Italian plant response rating (Italian ryegrass; 62 g ai/ha): 10
- Plant response rating, Ryegrass, Italian (Italian ryegrass; [1]): 40
- Nightshade plant response rating (nightshade; 31 g ai/ha): 98
- Nightshade plant response rating (nightshade; 62 g ai/ha): 100
- Plant response rating, Nightshade (nightshade; [1]): 100
- Morningglory plant response rating (morningglory; 31 g ai/ha): 25
- Morningglory plant response rating (morningglory; 62 g ai/ha): 40
- Plant response rating, Morningglory (morningglory; [1]): 65
- Waterhemp plant response rating (waterhemp; 31 g ai/ha): 98
- Waterhemp plant response rating (waterhemp; 62 g ai/ha): 98
- Plant response rating, Waterhemp (waterhemp; [1]): 100
- Goosegrass plant response rating (goosegrass; 31 g ai/ha): 60
- Goosegrass plant response rating (goosegrass; 62 g ai/ha): 75
- Plant response rating, Goosegrass (goosegrass; [1]): 98
- Corn plant response rating (corn; 16 g ai/ha): 0
- Corn plant response rating (corn; 31 g ai/ha): 0
- Corn plant response rating (corn; 62 g ai/ha): 15
- Plant response rating, Corn (corn; [1]): 25
- Beggarticks plant response rating (hairy beggarticks; 16 g ai/ha): 0
- Beggarticks plant response rating (hairy beggarticks; 31 g ai/ha): 0
- Beggarticks plant response rating (hairy beggarticks; 62 g ai/ha): 0
- Plant response rating, Beggarticks (hairy beggarticks; [1]): 0
